Laboratory results reported in patent publication US7557110B2, “Pyrazolo[1,5-A] pyrimidine derivatives” (Teijin Pharma Limited, priority 2003, dated 2009).
pIC50: −log10 of the molar value.

How the values were obtained:
[1] = molecular target: MAPKAP-K2 (Homo sapiens, UniProt P49137); assay: MAPKAP-K2 enzyme activity inhibition (33P-ATP filter plate kinase assay); assay type: biochemical; details: MAPKAP-K2 inhibitory activity; assays conducted at typically 1-100 μM; also: key: +: active; ++: more active; +++: very active
Description: [General Procedure for Measurement of MAPKAP-K2 Enzyme Activity Inhibition]
After conducting the reaction for 30 minutes at room temperature, an equivalent volume of a 200 mM phosphoric acid solution was added to suspend the reaction, and 90 μL of the reaction product was adsorbed onto a MultiScreen PH plate (Millipore) and rinsed with a 100 mM phosphoric acid solution. After drying the plate, 30 μL of MicroScint-O (Packard BioScience) was added, and the cpm was measured with a scintillation counter to determine the inhibiting activity. Substrate peptide is […]

[2] = molecular target: CDK-2 (Homo sapiens, UniProt P24941); assay: CDK-2 enzyme activity inhibition (33P-ATP filter plate kinase assay); assay type: biochemical; details: read-out: CDK-2 inhibition IC50
Description: [General Procedure for Measurement of CDK-2 Enzyme Activity Inhibition]

Sequence of MAPKAP-K2 (P49137 whole entry): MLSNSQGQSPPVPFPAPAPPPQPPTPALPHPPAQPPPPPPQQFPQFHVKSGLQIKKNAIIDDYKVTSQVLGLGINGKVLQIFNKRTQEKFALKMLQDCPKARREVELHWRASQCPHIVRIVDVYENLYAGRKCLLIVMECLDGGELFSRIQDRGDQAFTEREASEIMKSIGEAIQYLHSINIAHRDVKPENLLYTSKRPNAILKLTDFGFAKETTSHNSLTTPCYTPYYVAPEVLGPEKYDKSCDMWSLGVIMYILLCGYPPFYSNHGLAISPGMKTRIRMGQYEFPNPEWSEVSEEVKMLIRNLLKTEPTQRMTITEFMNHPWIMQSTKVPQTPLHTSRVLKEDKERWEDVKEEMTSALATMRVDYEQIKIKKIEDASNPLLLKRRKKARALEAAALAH

| Compound | activity (efficacy against MAPKAP-K2) [1] | pIC50 [2] |
| --- | --- | --- |
| Cc1ccccc1-c1ccc(Nc2c(C)c(N[C@H]3CC[C@H](N)CC3)nc3ccnn23)cc1 [Compound 321] | +++ | > 4.00 |
| Cc1c(N[C@H]2CC[C@H](N)CC2)nc2ccnn2c1Nc1ccc(-c2ccccc2C(F)(F)F)cc1 [Compound 323] | ++ | > 4.00 |
| Cc1c(N[C@H]2CC[C@H](N)CC2)nc2ccnn2c1Nc1ccc(-c2cccc(C(F)(F)F)c2)cc1 [Compound 324] | +++ | > 4.00 |
| CCOc1ccc(Nc2c(C)c(N(C)C3CCCNC3)nc3ccnn23)cc1 (stereo not shown) [Compound 340] | + | > 4.00 |
| CCOc1ccc(Nc2c(C)c(N(CC)C3CCCNC3)nc3ccnn23)cc1 (stereo not shown) [Compound 341] | + | > 4.00 |
| Cc1c(N[C@H]2CC[C@H](N)CC2)nc2ccnn2c1Nc1ccc(-c2ccc(C(F)(F)F)cc2)cc1 [Compound 350] | +++ | > 4.00 |
| CCS(=O)(=O)c1ccc(-c2ccc(Nc3c(C)c(N[C@H]4CC[C@H](N)CC4)nc4ccnn34)cc2)cc1 [Compound 351] | +++ | > 4.00 |
| Cc1c(N[C@H]2CC[C@H](N)CC2)nc2ccnn2c1Nc1ccc(-c2ccc(CO)cc2)cc1 [Compound 352] | +++ | > 4.00 |
| Cc1c(N[C@H]2CC[C@H](N)CC2)nc2ccnn2c1Nc1ccc(-c2cccc(CO)c2)cc1 [Compound 353] | +++ | > 4.00 |
| COCc1cccc(-c2ccc(Nc3c(C)c(N[C@H]4CC[C@H](N)CC4)nc4ccnn34)cc2)c1 [Compound 354] | +++ | > 4.00 |
| CC(=O)c1ccc(-c2ccc(Nc3c(C)c(N[C@H]4CC[C@H](N)CC4)nc4ccnn34)cc2)s1 [Compound 355] | +++ | > 4.00 |
| CCOc1ccc(-c2ccc(Nc3c(C)c(N[C@H]4CC[C@H](N)CC4)nc4ccnn34)cc2)cc1 [Compound 356] | +++ | > 4.00 |
| Cc1csc(-c2ccc(Nc3c(C)c(N[C@H]4CC[C@H](N)CC4)nc4ccnn34)cc2)c1 [Compound 357] | +++ | > 4.00 |
| CCOc1ccc(Nc2c(C)c(N[C@H]3CC[C@H](N)CC3)nc3c(C(=O)Nc4ccccn4)cnn23)cc1 [Compound 359] | ++ | > 4.00 |
| CCCCC(=O)c1cnn2c(Nc3ccc(OCC)cc3)c(C)c(N[C@H]3CC[C@H](N)CC3)nc12 [Compound 362] | ++ | > 4.00 |
| CCOc1ccc(Nc2c(C)c(N[C@@H]3CCNC3)nc3ccnn23)cc1 [Compound 412] | ++ | > 4.00 |
| Cc1c(N[C@H]2CC[C@H](N)CC2)nc2c(C(=O)C(F)(F)F)cnn2c1Nc1ccc(I)cc1 [Compound 417, 1-{5-[(trans-4-aminocyclohexyl)amino]-7-[(4-iodophenyl)amino]-6-methyl(pyrazolo[1,5-a]pyrimidin-3-yl)}-2,2,2-trifluoroethan-1-one] | + | > 4.00 |
| CCOc1ccc(Nc2c(C)c(N[C@@H]3CCN(Cc4ccccc4)C3)nc3ccnn23)cc1 [Compound 418] | ++ | > 4.00 |
| Cc1cscc1-c1ccc(Nc2c(C)c(N[C@H]3CC[C@H](N)CC3)nc3ccnn23)cc1 [Compound 421] | +++ | > 4.00 |
| Cc1c(N[C@H]2CC[C@H](N)CC2)nc2ccnn2c1Nc1ccc(-c2cn[nH]c2)cc1 [Compound 422] | +++ | > 4.00 |
| Cc1c(N[C@H]2CC[C@H](N)CC2)nc2ccnn2c1Nc1ccc(-c2cc3ccccc3[nH]2)cc1 [Compound 423] | +++ | > 4.00 |
| CCOc1ccc(Nc2c(C)c(N[C@H]3CC[C@H](N)CC3)nc3c(NC)cnn23)cc1 [Compound 437] | + | > 4.00 |
| Cc1c(N[C@H]2CC[C@H](N)CC2)nc2c(F)cnn2c1Nc1ccc(I)cc1 [Compound 441, {5-[(trans-4-aminocyclohexyl)amino]-3-fluoro-6-methyl(pyrazolo[1,5-a]pyrimidin-7-yl)}(4-iodophenyl)amine] | +++ | > 4.00 |
| Cc1c(NC2CCCNC2)nc2ccnn2c1Nc1ccc(-c2cccc(N)c2)cc1 (stereo not shown) [Compound 444] | +++ | > 4.00 |
| Cc1c(NC2CCCNC2)nc2ccnn2c1Nc1ccc(-c2cccc(CO)c2)cc1 (stereo not shown) [Compound 445] | +++ | > 4.00 |
| CNC(=O)c1ccc(Nc2c(C)c(N[C@H]3CC[C@H](N)CC3)nc3ccnn23)cc1 [Compound 460] | +++ | > 4.00 |
